# Measurements published in patent US20220362577A1, “METHODS FOR GUIDING DIRECT DELIVERY OF DRUGS AND/OR ENERGY TO LESIONS USING COMPUTATIONAL MODELING” (University of Vermont and State Agricultural College, priority 2019, published 2022).
# Experiments:
# [1] = Cisplatin blood concentration versus time after EBUS-TBNI into a patient's lung tumor, fitted with Eq. 14; assay type: in vivo, human; details: fit of Eq. 14 to blood concentrations after five 8-mg intratumoral injections
# Protocol: Combining Eqs. 2 and 12 gives:
# The fitting was achieved by optimizing the values of the two free parameters (kf+ki) and Vf using a gradient-based algorithm to minimize the cost function: […]
# Ultrasound guidance was used to attempt to distribute the 5 injections evenly throughout the tumor over an interval of 18 min.
# [2] = test system: mitochondrial respiration; details: cisplatin-treated cells; cited from earlier work
# [3] = test system: head, neck and gastric carcinomas; details: assumed the same for lung carcinomas; cited from earlier work
smiles,measurement,setting,value
N.N.[Cl][Pt][Cl] [cisplatin],"ki+kf, sum of rate constants out of the extracellular space",[1],0.000251 s⁻¹
same,concentration above which stepwise decrements in mitochondrial respiration were seen,[2],above 5.0 uM
same,"ki, rate constant of flow into the intracellular space",[3],0.000105 s⁻¹
